In US20260364089A1, “PYRIDOPYRIMIDINE KRAS INHIBITORS” (Treeline Biosciences, Inc., priority 2022, published 2026):

Key:
Type in all cases: biochemical
[1] = target: T1, KRas G12V (Homo sapiens, UniProt P01116, G12V); experiment: SOS1-Catalyzed Nucleotide Exchange Assay, KRas G12V (Method 1); conditions: 5 nM KRas G12V (aa 1-169, GDP-loaded), 50 nM SOS1
T1 construct: Biotinylated KRas G12V (aa 1-169) loaded with GDP nucleotide; biotin (biotinylated)
Experimental: KRas G12V [Method 1]: Biotinylated KRas G12V (aa 1-169) loaded with GDP nucleotide and Streptavidin-Europium (SA-EU, Columbia Biosciences) were preincubated in assay buffer (20 mM HEPES pH 7.4, 150 mM NaCl, 5 mM MgCl2, 1 mM DTT, 0.01% Brij-35, 0.3 mg/mL BSA) on ice for 30 min. Separately SOS1 (aa 546-1049) and EDA-GTP-DY647P1 (Jena Bioscience) were preincubated in assay buffer on ice for 30 min. After pre-incubation, 5 μL buffer and 5 μL of KRas G12V-SA-Eu were added to each well of a white, low-volume, non-binding 384-well plate. Compounds were then added to respective wells with a Tecan D300e liquid dispenser. A 10-point concentration response curve for each compound was prepared with appropriate top concentration (1 μM, 10 μM, or 300 μM) and incubated for 30 min. 5 μL of SOS1-EDA-GTP-D467P1 was added to start the nucleotide exchange reaction. Final concentration in the assay were 5 nM KRas G12V, 50 nM SOS1 (aa 564-1049). The reaction was allowed to proceed for 60-90 minutes after which the plate was read on a PHERAstar FSX plate reader (exc: 337 nm, em 1: 665 nm, em 2: 620 nm). After normalization of the raw data (ratio of Signal665nm/Signal620nm) the data was fit to a four-parameter logistic curve in GraphPad Prism (v9.4.1).

[2] = target: T2, KRas WT (Homo sapiens, UniProt P01116); experiment: SOS1-Catalyzed Nucleotide Exchange Assay, KRas WT; conditions: 20 nM KRas WT (1-169, GDP-loaded), 10 nM SOS1
T2 construct: Biotinylated KRas WT(1-169); biotin (biotinylated)
Experimental: (§1) KRas G12R and WT: Compounds were pre-dispensed using acoustic transfer technology into a black, low volume 384-well assay plate. A 10-point dose response of each compound was performed with a 30 μM top dose. Biotinylated KRas WT(1-169) or KRas G12R (1-169) loaded with GDP nucleotide was mixed with Streptavidin-Tb cryptate (Cisbio) in assay buffer (20 mM HEPES pH 7.4, 150 mM NaCl, 2 mM MgCl2, and 0.005% CA680) to produce a 1.5× solution. 10 μL of the 1.5× KRas-cryptate solution was added to wells of a black, low-volume 384-well assay plate. The KRas/cryptate-compound mixture was incubated for 1 hour at room temperature. A 3× solution of SOS1 (564-1049) and EDA-GTP-DY-647P1 (Jena Bioscience) was prepared in assay buffer. 5 μL of the SOS1-labeled GTP solution was added to the wells to initiate the nucleotide exchange reaction. The final concentration of KRas G12R and SOS1 were 10 nM and 200 nM, respectively. The final concentration of KRas WT and SOS1 were 20 nM and 10 nM, respectively. The plate was allowed to incubate for 1 hr, then time resolved fluorescence was read on a PHERAstar plate reader equipped with a filter module with excitation=337 nm and emission 1=620 nm, emission 2=665 nm. The TR-FRET signal was calculated as the ratio of fluorescence intensity [emission 665 nm]/[emission 620 nm]. IC50 values were calculated using a four-parameter, variable response sigmoidal dose response curve fit in PerkinElmer Signals VitroVivo.

[3] = target: T3, KRas G12R (Homo sapiens, UniProt P01116, G12R); experiment: SOS1-Catalyzed Nucleotide Exchange Assay, KRas G12R; conditions: 10 nM KRas G12R (1-169, GDP-loaded), 200 nM SOS1
T3 construct: KRas G12R (1-169) loaded with GDP nucleotide; biotin (biotinylated)
Experimental: as §1

[4] = target: T1, KRas G12V; experiment: SOS1-Catalyzed Nucleotide Exchange Assay, KRas G12V (Method 2); conditions: Method 2, A; 5 nM KRas G12V (aa 1-169, GDP-loaded), 50 nM SOS1; read-out: KRas G12V IC50 (nM) (Method 2, A)
Method in brief: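 Biotinylated GDP-loaded KRas G12V (aa 1-169, 5 nM final) with SA-Eu, preincubated 30 min with compound, then SOS1 (50 nM) plus EDA-GTP-DY647P1 added; exchange ran 60-90 min in HEPES pH 7.4 buffer. 10-point curves, top 1, 10 or 100 μM; normalized data fit to four-parameter logistic.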

T2 sequence (P01116 1-169): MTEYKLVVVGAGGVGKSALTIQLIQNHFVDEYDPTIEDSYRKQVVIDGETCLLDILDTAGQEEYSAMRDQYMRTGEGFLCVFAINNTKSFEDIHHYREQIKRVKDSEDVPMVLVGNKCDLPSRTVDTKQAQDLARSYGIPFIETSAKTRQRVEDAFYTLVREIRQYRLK
T3 sequence (P01116 1-169 G12R): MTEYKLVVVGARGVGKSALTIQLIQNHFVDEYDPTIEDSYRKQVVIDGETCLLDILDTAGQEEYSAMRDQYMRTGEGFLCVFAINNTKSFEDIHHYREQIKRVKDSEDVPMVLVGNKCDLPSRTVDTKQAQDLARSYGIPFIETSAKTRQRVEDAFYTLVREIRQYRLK
T1 sequence (P01116 1-169 G12V): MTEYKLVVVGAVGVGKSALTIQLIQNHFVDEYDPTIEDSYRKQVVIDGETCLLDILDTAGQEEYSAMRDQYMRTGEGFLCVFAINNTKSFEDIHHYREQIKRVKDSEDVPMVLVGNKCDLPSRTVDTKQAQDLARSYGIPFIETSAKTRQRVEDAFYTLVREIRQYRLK

In the case of O=C1CCc2c(Cl)cc(O)cc2-c2ncc3c(nc(OC[C@@]45CCCN4C[C@H](F)C5)nc3c2F)N2CCCC(CCN1)C2 (stereo partly drawn) [Compound 113a, 3^3-chloro-2^8-fluoro-2^2-(((2R,7aS)-2-fluorotetrahydro-1H-pyrrolizin-7a(5H)-yl)methoxy)-3^5-hydroxy-7-aza-2(4,7)-pyrido[4,3-d]pyrimidina-1(1,3)-piperidina-3(1,2)-benzenacyclononaphan-6-one], the IC50 [1] is reported as 1000 to 10000 nM, the IC50 [2] is reported as 1 to 10 µM and the IC50 [3] is reported as 10 to 30 µM.

For O=C1CCCCc2c(Cl)cc(O)cc2-c2ncc3c(nc(OC[C@@]45CCCN4C[C@H](F)C5)nc3c2F)N2CCCC(CCN1)C2 (stereo partly drawn) [Compound 115a, 3^3-chloro-2^8-fluoro-2^2-(((2R,7aS)-2-fluorotetrahydro-1H-pyrrolizin-7a(5H)-yl)methoxy)-3^5-hydroxy-9-aza-2(4,7)-pyrido[4,3-d]pyrimidina-1(1,3)-piperidina-3(1,2)-benzenacycloundecaphan-8-one], the IC50 [1] was no more than 100 nM, the IC50 [2] was no more than 0.1 µM and the IC50 [3] was no more than 0.1 µM.

Oc1cc(Cl)c2c(c1)-c1ncc3c(nc(OC[C@@]45CCCN4C[C@H](F)C5)nc3c1F)N1CCCC(O)(CCCCCCC2)C1 (stereo partly drawn) [Compound 152a, 3^3-chloro-2^8-fluoro-2^2-(((2R,7aS)-2-fluorotetrahydro-1H-pyrrolizin-7a(5H)-yl)methoxy)-2(4,7)-pyrido[4,3-d]pyrimidina-1(1,3)-piperidina-3(1,2)-benzenacyclodecaphane-1^3,3^5-diol] gave an IC50 [1] of no more than 100 nM, an IC50 [2] of no more than 0.1 µM and an IC50 [3] of no more than 0.1 µM.

With Oc1ccc2c(c1)-c1ncc3c(nc(OC[C@@]45CCCN4C[C@H](F)C5)nc3c1F)N1CCCC(CCCCCCC2)C1 (stereo partly drawn) [Compound 143a, 2^8-fluoro-2^2-(((2R,7aS)-2-fluorotetrahydro-1H-pyrrolizin-7a(5H)-yl)methoxy)-2(4,7)-pyrido[4,3-d]pyrimidina-1(1,3)-piperidina-3(1,2)-benzenacyclodecaphan-3^5-ol] the IC50 [1] was 100 to 1000 nM, the IC50 [2] was no more than 0.1 µM and the IC50 [3] was 0.1 to 1 µM.

In the case of O=C1CCCCc2c(Cl)cc(O)cc2-c2ncc3c(nc(OC[C@@]45CCCN4C[C@H](F)C5)nc3c2F)N2CCC[C@@H](CCN1)C2 (single isomer, unassigned) [Compound 115c], the IC50 [1] is reported as no more than 100 nM, the IC50 [2] is reported as no more than 0.1 µM and the IC50 [3] is reported as no more than 0.1 µM.

In the case of Oc1cc(Cl)c2c(c1)-c1ncc3c(nc(OC[C@@]45CCCN4C[C@H](F)C5)nc3c1F)N1CCCC(Cc3noc(n3)CCCCCC2)C1 (stereo partly drawn) [Compound 153a, (Z)-1^3-chloro-2^8-fluoro-2^2-(((2R,7aS)-2-fluorotetrahydro-1H-pyrrolizin-7a(5H)-yl)methoxy)-5(3,5)-oxadiazola-2(7,4)-pyrido[4,3-d]pyrimidina-3(1,3)-piperidina-1(1,2)-benzenacycloundecaphan-1^5-ol], the IC50 [1] is reported as 100 to 1000 nM, the IC50 [2] is reported as 0.1 to 1 µM and the IC50 [3] is reported as 0.1 to 1 µM.

For Oc1cc2c3c(c(F)ccc3c1)-c1cn(nn1)CCCCC1CCCN(C1)c1nc(OC[C@@]34CCCN3C[C@H](F)C4)nc3c(F)c-2ncc13 (stereo partly drawn) [Compound 125a, (Z)-2^8,3^7-difluoro-2^2-(((2R,7aS)-2-fluorotetrahydro-1H-pyrrolizin-7a(5H)-yl)methoxy)-4^1H-2(4,7)-pyrido[4,3-d]pyrimidina-1(1,3)-piperidina-4(4,1)-triazola-3(1,8)-naphthalenacyclooctaphan-3^3-ol], the IC50 [1] was 10000 to 30000 nM, the IC50 [2] was 1 to 10 µM and the IC50 [3] was 10 to 30 µM.

Work on O=C1CCCCc2c(Cl)cc(O)cc2-c2ncc3c(nc(OC[C@@]45CCCN4C[C@H](F)C5)nc3c2F)N2CCCC(O)(CCN1)C2 (stereo partly drawn) [Compound 140a, 3^3-chloro-2^8-fluoro-2^2-(((2R,7aS)-2-fluorotetrahydro-1H-pyrrolizin-7a(5H)-yl)methoxy)-1^3,3^5-dihydroxy-9-aza-2(4,7)-pyrido[4,3-d]pyrimidina-1(1,3)-piperidina-3(1,2)-benzenacycloundecaphan-8-one] yielded an IC50 [1] of no more than 100 nM.

O=C1CCCCc2c(Cl)cc(O)cc2-c2ncc3c(nc(OC[C@@]45CCCN4C[C@H](F)C5)nc3c2F)N2CCC[C@H](CCN1)C2 (single isomer, unassigned) [Compound 115b] was tested, and the IC50 [1] was no more than 100 nM, the “KRas WT IC50 (nM)” value [2] was “++ ++” and the IC50 [3] was no more than 0.1 µM.

Oc1cc(Cl)c2c(c1)-c1ncc3c(nc(OC[C@@]45CCCN4C[C@H](F)C5)nc3c1F)N1CCCC(O)(CCCCCC2)C1 (stereo partly drawn) [Compound 151a, 3^3-chloro-2^8-fluoro-2^2-(((2R,7aS)-2-fluorotetrahydro-1H-pyrrolizin-7a(5H)-yl)methoxy)-2(4,7)-pyrido[4,3-d]pyrimidina-1(1,3)-piperidina-3(1,2)-benzenacyclononaphane-1^3,3^5-diol] gave an IC50 [1] of no more than 100 nM, an IC50 [2] of no more than 0.1 µM and an IC50 [3] of no more than 0.1 µM.

Work on O=C1CCCCc2c(Cl)cc(O)cc2-c2ncc3c(nc(OC[C@@]45CCCN4C[C@H](F)C5)nc3c2F)N2CCCC(CN1)C2 (stereo partly drawn) [Compound 141a, 3^3-chloro-2^8-fluoro-2^2-(((2R,7aS)-2-fluorotetrahydro-1H-pyrrolizin-7a(5H)-yl)methoxy)-3^5-hydroxy-9-aza-2(4,7)-pyrido[4,3-d]pyrimidina-1(1,3)-piperidina-3(1,2)-benzenacyclodecaphan-8-one] yielded an IC50 [1] of no more than 100 nM.

Nc1cc(Cl)c2c(c1)-c1c(Cl)cc3c(nc(OC[C@@]45CCCN4C[C@H](F)C5)nc3c1F)N1CCCC(CCNC(=O)CCCC2)C1 (stereo partly drawn) [Compound 155a, 3^5-amino-2^6,3^3-dichloro-2^8-fluoro-2^2-(((2R,7aS)-2-fluorotetrahydro-1H-pyrrolizin-7a(5H)-yl)methoxy)-9-aza-2(4,7)-quinazolina-1(1,3)-piperidina-3(1,2)-benzenacycloundecaphan-8-one] was tested, and the IC50 [4] was 1000 to 10000 nM.
